One assay has as its target T1, porcine D1R (Sus scrofa, UniProt P50130).
T1 construct: homogenates obtained from porcine striatum; from tissue; host or cells: porcine striatum homogenate
Kind of assay: Radioligand competition, [3H]SCH23390, porcine striatum homogenates. The following applies: [3H]SCH23,390; mean of n experiments; read-out: Ki pD1R. Type of assay: binding. Background: Loss of bound radioactivity is the signal in a displacement assay; it reports binding, not function.
T1 sequence (P50130 whole entry): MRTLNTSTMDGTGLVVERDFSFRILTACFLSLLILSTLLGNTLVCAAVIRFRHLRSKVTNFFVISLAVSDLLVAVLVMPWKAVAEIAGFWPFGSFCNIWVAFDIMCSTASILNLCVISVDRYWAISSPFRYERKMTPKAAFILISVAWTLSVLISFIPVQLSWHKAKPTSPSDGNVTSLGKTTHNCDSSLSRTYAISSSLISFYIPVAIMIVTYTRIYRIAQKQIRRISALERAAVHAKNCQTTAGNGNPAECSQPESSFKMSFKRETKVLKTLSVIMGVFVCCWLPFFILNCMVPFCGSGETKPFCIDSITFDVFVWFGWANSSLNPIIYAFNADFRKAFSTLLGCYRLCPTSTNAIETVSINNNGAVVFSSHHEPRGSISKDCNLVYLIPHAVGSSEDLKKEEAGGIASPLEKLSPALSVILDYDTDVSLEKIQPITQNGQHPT
On to `CCCN(CCCCc1cn(-c2ccc(C(=O)NCCCNC(=O)c3ccc(-c4c5ccc(=N)c(S(=O)(=O)O)c-5oc5c(S(=O)(=O)O)c(N)ccc45)c(C(=O)O)c3)cc2)nn1)C1Cc2ccccc2C1` [10c], for which the Ki stood at 5100 nM.

In another assay the target is human isoform of D1R (Homo sapiens, UniProt P21728). Kind of assay: Radioligand competition at human isoform of D1R. The format is binding. The following applies: assay performed with human isoform of D1R; [3H]SCH23,390 column. As to the method: Supplementary Table S1. Binding affinities of the test compounds. Binding affinities of the test compounds for porcine D1R, 5-HT 1AR, 5-HT 2R and α1-AR were determined by radioligand […]
Sequence of human isoform of D1R (P21728 whole entry, canonical isoform): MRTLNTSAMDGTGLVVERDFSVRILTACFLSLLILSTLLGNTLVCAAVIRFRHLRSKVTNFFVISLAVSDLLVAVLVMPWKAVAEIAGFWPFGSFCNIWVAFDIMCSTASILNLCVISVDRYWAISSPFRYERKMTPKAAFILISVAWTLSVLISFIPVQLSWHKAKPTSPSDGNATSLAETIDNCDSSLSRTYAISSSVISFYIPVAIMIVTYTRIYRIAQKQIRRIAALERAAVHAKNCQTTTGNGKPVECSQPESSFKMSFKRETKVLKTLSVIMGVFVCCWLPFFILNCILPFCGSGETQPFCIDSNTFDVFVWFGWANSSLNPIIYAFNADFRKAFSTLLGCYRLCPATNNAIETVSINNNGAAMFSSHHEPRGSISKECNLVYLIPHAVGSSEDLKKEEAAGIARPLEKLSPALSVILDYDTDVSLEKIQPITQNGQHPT
a Data are indicated as m ean (and range) of (n) individual experim ents, each per form ed in triplicate; b assay perform ed with hum an isoform of D1R; c n. d. K i not determ ined as no com plete ligand displacem ent occurred;
`CCCN(CCCCc1cn(-c2ccc(CNC(=O)c3ccc(-c4c5ccc(=NCC(F)(F)F)cc-5oc5cc(NCC(F)(F)F)ccc45)c(C(=O)O)c3)cc2)nn1)C1Cc2ccccc2C1` [10a] showed a Ki of 310 nM.

In another assay the target is T2, D2SR (Homo sapiens, UniProt P14416). Description: Radioligand competition, [3H]spiperone, CHO cell membranes.
T2 sequence (P14416 1-414 isoform P14416-2): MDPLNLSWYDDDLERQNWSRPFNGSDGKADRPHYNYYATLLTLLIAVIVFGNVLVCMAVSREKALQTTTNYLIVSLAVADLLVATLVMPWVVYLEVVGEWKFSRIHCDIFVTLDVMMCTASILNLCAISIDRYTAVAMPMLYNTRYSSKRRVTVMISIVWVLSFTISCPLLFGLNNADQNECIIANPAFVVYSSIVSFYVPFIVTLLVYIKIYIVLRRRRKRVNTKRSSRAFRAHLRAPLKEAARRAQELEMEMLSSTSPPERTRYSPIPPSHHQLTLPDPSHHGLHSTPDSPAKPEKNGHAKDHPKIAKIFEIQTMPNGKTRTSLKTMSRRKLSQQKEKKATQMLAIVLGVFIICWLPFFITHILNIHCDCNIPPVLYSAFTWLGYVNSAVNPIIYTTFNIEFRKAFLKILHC
Conditions: not given
The compound `CCCN(CCCCc1cn(-c2ccc(CNC(=O)c3ccc(-c4c5ccc(=NCC(F)(F)F)cc-5oc5cc(NCC(F)(F)F)ccc45)c(C(=O)O)c3)cc2)nn1)C1Cc2ccccc2C1` [10a] came in with a Ki of 21 ± 4 nM.

The same assay, now with this note: read-out: Ki hD2SR; [3H]spiperone; mean ± SEM.
On to `CCCN(CCCCc1cn(-c2ccc(C(=O)NCCCNC(=O)c3ccc(-c4c5ccc(=N)c(S(=O)(=O)O)c-5oc5c(S(=O)(=O)O)c(N)ccc45)c(C(=O)O)c3)cc2)nn1)C1Cc2ccccc2C1` [10c], for which the Ki worked out at 15 ± 4 nM.

For the next assay, the target named is T3, human D4R (Homo sapiens, UniProt P21917).
T3 sequence (P21917 1-419): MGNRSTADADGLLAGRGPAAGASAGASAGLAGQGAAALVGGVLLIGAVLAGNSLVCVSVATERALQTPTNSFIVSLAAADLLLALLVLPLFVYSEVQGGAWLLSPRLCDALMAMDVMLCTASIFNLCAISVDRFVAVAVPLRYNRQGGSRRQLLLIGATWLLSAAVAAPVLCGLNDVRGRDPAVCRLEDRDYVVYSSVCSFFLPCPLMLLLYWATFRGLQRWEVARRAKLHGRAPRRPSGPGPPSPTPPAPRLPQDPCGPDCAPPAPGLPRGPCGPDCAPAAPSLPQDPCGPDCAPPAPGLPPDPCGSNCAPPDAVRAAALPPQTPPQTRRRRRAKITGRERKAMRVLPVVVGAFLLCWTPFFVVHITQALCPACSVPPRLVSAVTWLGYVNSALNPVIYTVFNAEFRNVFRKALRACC
Described as above.
Conditions: not given
Regarding `CCCN(CCCCc1cn(-c2ccc(CNC(=O)c3ccc(-c4c5ccc(=NCC(F)(F)F)cc-5oc5cc(NCC(F)(F)F)ccc45)c(C(=O)O)c3)cc2)nn1)C1Cc2ccccc2C1` [10a], affinity was put at a Ki of 56 ± 4 nM.

The same assay, now with this note: read-out: Ki hD4R; [3H]spiperone; mean ± SEM.
Take `CCCN(CCCCc1cn(-c2ccc(C(=O)NCCCNC(=O)c3ccc(-c4c5ccc(=N)c(S(=O)(=O)O)c-5oc5c(S(=O)(=O)O)c(N)ccc45)c(C(=O)O)c3)cc2)nn1)C1Cc2ccccc2C1` [10c]: the Ki was found to be 47 ± 9 nM.

The target of another assay is secNluc-D3R (UniProt P35462+Q9GV45, A31E/A60N/A81I/F95D/I117V/K70R/L54V/L99Q/M102K/N193R/P142E/Q151K/Q38R/Q45L/V71I/Y165I). Description: NanoBRET association and dissociation kinetics, membranes.
Sequence of secNluc-D3R (Q9GV45+P35462 fused with the stated changes): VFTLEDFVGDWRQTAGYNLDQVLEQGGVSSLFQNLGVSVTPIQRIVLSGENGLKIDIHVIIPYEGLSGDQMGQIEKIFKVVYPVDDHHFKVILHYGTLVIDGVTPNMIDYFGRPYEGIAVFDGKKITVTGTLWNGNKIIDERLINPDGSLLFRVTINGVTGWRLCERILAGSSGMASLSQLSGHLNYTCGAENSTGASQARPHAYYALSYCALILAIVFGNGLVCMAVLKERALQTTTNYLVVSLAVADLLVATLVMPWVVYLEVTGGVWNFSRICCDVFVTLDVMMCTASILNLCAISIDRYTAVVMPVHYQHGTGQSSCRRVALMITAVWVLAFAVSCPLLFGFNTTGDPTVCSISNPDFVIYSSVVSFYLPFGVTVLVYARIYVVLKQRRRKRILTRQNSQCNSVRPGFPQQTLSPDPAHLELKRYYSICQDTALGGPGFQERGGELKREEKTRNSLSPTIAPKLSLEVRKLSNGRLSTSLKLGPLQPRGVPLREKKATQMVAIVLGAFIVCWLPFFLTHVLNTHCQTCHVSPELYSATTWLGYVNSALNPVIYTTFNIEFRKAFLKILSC
Conditions: not given
The format is binding. As to the method: (a) Association of 10a at room temperature was measured by NanoBRET using secNluc-D3R membrane preparations and threefold serial dilutions of 10a (3.3–30 nM). […] Obtained IC50 values were transformed into Ki values applying the equation of Cheng and Prusoff[52]. […] Kinetic assays were monitored at room temperature and minimal possible cycle time of the CLARIOstar was used for each measurement. Data was fitted to one phase association and dissociation equations in PRISM6.0 to determine the kinetic constants. […] Addition of furimazine (1:5,000) and BRET measurements were carried out as described above. Data analysis was performed using the one site—fit Ki equation in PRISM6.0 to determine the inhibition constants (Ki) of the unlabeled ligands.
Compound `CCCN(CCCCc1cn(-c2ccc(CNC(=O)c3ccc(-c4c5ccc(=NCC(F)(F)F)cc-5oc5cc(NCC(F)(F)F)ccc45)c(C(=O)O)c3)cc2)nn1)C1Cc2ccccc2C1` [10a] had a koff of 0.0009 s⁻¹ and a residence time of 19 ± 1 min.

The same assay, now with this note: read-out: Kon association rate constant.
Regarding `CCCN(CCCCc1cn(-c2ccc(CNC(=O)c3ccc(-c4c5ccc(=NCC(F)(F)F)cc-5oc5cc(NCC(F)(F)F)ccc45)c(C(=O)O)c3)cc2)nn1)C1Cc2ccccc2C1` [10a], the kon is 170000 M⁻¹ s⁻¹.

For another assay, the target named is human D2LR (Homo sapiens, UniProt P14416). Kind of assay: Radioligand competition, [3H]spiperone, CHO cell membranes.
Sequence of human D2LR (P14416 whole entry): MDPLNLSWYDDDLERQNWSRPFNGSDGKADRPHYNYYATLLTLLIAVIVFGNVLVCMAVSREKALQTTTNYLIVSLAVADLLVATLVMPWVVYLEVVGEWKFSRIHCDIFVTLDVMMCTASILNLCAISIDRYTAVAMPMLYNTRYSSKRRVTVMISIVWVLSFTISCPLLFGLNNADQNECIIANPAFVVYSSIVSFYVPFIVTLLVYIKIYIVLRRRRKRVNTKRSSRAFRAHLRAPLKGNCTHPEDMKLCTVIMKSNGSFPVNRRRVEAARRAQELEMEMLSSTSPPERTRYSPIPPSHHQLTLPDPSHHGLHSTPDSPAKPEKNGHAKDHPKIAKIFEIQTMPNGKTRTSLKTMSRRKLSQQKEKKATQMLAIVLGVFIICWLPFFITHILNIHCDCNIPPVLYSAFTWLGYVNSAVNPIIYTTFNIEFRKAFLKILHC
Conditions: not given
`CCCN(CCCCc1cn(-c2ccc(CNC(=O)c3ccc(-c4c5ccc(=NCC(F)(F)F)cc-5oc5cc(NCC(F)(F)F)ccc45)c(C(=O)O)c3)cc2)nn1)C1Cc2ccccc2C1` [10a] registered a Ki of 46 ± 7 nM.

The assay is the same for the next values; noted with them: read-out: Ki hD2LR; [3H]spiperone; mean ± SEM.
As for `CCCN(CCCCc1cn(-c2ccc(C(=O)NCCCNC(=O)c3ccc(-c4c5ccc(=N)c(S(=O)(=O)O)c-5oc5c(S(=O)(=O)O)c(N)ccc45)c(C(=O)O)c3)cc2)nn1)C1Cc2ccccc2C1` [10c], the Ki worked out at 23 ± 5 nM.

The target of the next assay is T4, porcine 5-HT1AR (Sus scrofa, UniProt A0A4X1UTF5).
T4 construct: homogenates of porcine cerebral cortex; from tissue; host or cells: porcine cerebral cortex homogenate
T4 sequence (A0A4X1UTF5 1-422): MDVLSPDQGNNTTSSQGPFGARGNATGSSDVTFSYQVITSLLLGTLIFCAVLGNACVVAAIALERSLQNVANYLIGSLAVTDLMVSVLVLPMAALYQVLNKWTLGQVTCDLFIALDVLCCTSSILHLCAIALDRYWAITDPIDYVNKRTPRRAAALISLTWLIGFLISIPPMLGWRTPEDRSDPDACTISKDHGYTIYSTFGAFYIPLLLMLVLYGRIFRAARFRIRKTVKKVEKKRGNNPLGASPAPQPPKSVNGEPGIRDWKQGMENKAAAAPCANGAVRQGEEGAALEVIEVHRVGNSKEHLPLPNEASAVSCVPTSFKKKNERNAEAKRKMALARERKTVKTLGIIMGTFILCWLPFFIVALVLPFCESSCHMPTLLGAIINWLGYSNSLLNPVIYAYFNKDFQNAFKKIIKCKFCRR
Description: Radioligand competition, [3H]WAY100,635, porcine cerebral cortex homogenates. Type of assay: binding. As to conditions: mean of n experiments, read-out: Ki p5-HT1AR.
With `CCCN(CCCCc1cn(-c2ccc(C(=O)NCCCNC(=O)c3ccc(-c4c5ccc(=N)c(S(=O)(=O)O)c-5oc5c(S(=O)(=O)O)c(N)ccc45)c(C(=O)O)c3)cc2)nn1)C1Cc2ccccc2C1` [10c], the Ki stood at 85 nM.

In another assay the target is human D3R (Homo sapiens, UniProt P35462). Description: Radioligand competition, [3H]spiperone, CHO cell membranes.
Sequence of human D3R (P35462 whole entry): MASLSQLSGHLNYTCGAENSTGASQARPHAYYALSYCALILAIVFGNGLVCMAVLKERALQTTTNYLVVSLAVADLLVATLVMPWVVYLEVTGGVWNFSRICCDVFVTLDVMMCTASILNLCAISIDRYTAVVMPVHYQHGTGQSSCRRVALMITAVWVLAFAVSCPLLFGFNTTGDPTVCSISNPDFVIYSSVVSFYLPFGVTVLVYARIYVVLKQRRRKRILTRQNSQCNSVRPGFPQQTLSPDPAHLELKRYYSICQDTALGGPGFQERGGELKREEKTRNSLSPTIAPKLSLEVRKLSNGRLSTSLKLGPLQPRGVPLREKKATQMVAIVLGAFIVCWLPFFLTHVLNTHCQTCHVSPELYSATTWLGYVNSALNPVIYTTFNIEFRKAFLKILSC
Conditions: not given
Regarding `CCCN(CCCCc1cn(-c2ccc(CNC(=O)c3ccc(-c4c5ccc(=NCC(F)(F)F)cc-5oc5cc(NCC(F)(F)F)ccc45)c(C(=O)O)c3)cc2)nn1)C1Cc2ccccc2C1` [10a], the Ki was 0.97 ± 0.23 nM.

Staying with this assay, now noted: read-out: Ki hD3R; [3H]spiperone; mean ± SEM.
Turning to `CCCN(CCCCc1cn(-c2ccc(C(=O)NCCCNC(=O)c3ccc(-c4c5ccc(=N)c(S(=O)(=O)O)c-5oc5c(S(=O)(=O)O)c(N)ccc45)c(C(=O)O)c3)cc2)nn1)C1Cc2ccccc2C1` [10c], the Ki turned out to be 0.76 ± 0.11 nM.

The target of a further assay is T5, porcine 5-HT2R (Sus scrofa, UniProt P50129).
T5 construct: homogenates of porcine cerebral cortex; from tissue; host or cells: porcine cerebral cortex homogenate
T5 sequence (P50129 whole entry): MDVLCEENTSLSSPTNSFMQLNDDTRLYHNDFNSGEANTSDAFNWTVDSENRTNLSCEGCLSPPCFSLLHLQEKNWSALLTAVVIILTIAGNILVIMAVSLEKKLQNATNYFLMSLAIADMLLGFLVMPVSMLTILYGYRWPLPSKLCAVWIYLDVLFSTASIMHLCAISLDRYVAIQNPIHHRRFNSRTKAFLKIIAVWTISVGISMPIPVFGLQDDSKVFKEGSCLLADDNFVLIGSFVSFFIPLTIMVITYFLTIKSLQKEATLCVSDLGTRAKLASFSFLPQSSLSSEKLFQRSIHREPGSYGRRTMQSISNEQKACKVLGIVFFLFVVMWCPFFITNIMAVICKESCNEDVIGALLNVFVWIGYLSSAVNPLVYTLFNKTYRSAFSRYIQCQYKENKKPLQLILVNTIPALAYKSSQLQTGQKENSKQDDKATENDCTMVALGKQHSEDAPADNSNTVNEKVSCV
Description: Radioligand competition, [3H]ketanserin, porcine cerebral cortex homogenates. The format is binding. The following applies: mean of n experiments, read-out: Ki p5-HT2R.
As to `CCCN(CCCCc1cn(-c2ccc(C(=O)NCCCNC(=O)c3ccc(-c4c5ccc(=N)c(S(=O)(=O)O)c-5oc5c(S(=O)(=O)O)c(N)ccc45)c(C(=O)O)c3)cc2)nn1)C1Cc2ccccc2C1` [10c], the Ki worked out at 2200 nM.

The target of a further assay is T2, D2SR. Kind of assay: β-arrestin-2 recruitment (Pathhunter, DiscoverX), HEK293 cells, GRK2 coexpressed. The format is cell-based. Also noted: expressed in transfected cells. As to conditions: mean ± SEM. For orientation: Recruitment of arrestin is a read-out of receptor activation apart from second messengers.
In the case of `CCCN(CCCCc1cn(-c2ccc(CNC(=O)c3ccc(-c4c5ccc(=NCC(F)(F)F)cc-5oc5cc(NCC(F)(F)F)ccc45)c(C(=O)O)c3)cc2)nn1)C1Cc2ccccc2C1` [10a], a half-maximal response (EC50) required 410 ± 70 nM.

Still in this assay, the particulars now being: read-out: EC50 β-arrestin-2 recruitment at D2SR, mean ± SEM.
As for `CCCN(CCCCc1cn(-c2ccc(C(=O)NCCCNC(=O)c3ccc(-c4c5ccc(=N)c(S(=O)(=O)O)c-5oc5c(S(=O)(=O)O)c(N)ccc45)c(C(=O)O)c3)cc2)nn1)C1Cc2ccccc2C1` [10c], the EC50 is 100 ± 20 nM.

Still in this assay, the particulars now being: read-out: Emax β-arrestin-2 recruitment at D2SR, reference agonist quinpirole.
For `CCCN(CCCCc1cn(-c2ccc(CNC(=O)c3ccc(-c4c5ccc(=NCC(F)(F)F)cc-5oc5cc(NCC(F)(F)F)ccc45)c(C(=O)O)c3)cc2)nn1)C1Cc2ccccc2C1` [10a], the Emax stood at 89 ± 3%.
On the same count and under the same terms, the result for `CCCN(CCCCc1cn(-c2ccc(C(=O)NCCCNC(=O)c3ccc(-c4c5ccc(=N)c(S(=O)(=O)O)c-5oc5c(S(=O)(=O)O)c(N)ccc45)c(C(=O)O)c3)cc2)nn1)C1Cc2ccccc2C1` [10c] reads 93 ± 3%.

A further assay concerns the target porcine α1-AR. Kind of assay: Radioligand competition, [3H]prazosin, porcine cerebral cortex homogenates. As to conditions: read-out: Ki pα1-AR, mean of n experiments.
Consider `CCCN(CCCCc1cn(-c2ccc(CNC(=O)c3ccc(-c4c5ccc(=NCC(F)(F)F)cc-5oc5cc(NCC(F)(F)F)ccc45)c(C(=O)O)c3)cc2)nn1)C1Cc2ccccc2C1` [10a], for which the Ki was found to be 100 nM.
Same read-out and setting: under `CCCN(CCCCc1cn(-c2ccc(C(=O)NCCCNC(=O)c3ccc(-c4c5ccc(=N)c(S(=O)(=O)O)c-5oc5c(S(=O)(=O)O)c(N)ccc45)c(C(=O)O)c3)cc2)nn1)C1Cc2ccccc2C1` [10c] stands 150 nM.

In general, Ki refers to a measure of affinity in units of concentration, obtained from inhibition or displacement. As usually defined, the koff is a measure of how fast the partners let go of each other. The low end stands for slow dissociation, the high end for fast dissociation. What is called residence time is how long the partners stay bound on average. A word on the kon: it is the rate constant with which the complex forms. The term EC50 denotes the concentration that produces a half-maximal response. In general, Emax refers to the maximal effect, on the per cent scale that the assay sets.
